Test results as given in patent US20240076272A1, “Activators of Heme Regulated Inhibitor Kinase (HRI)” (The Brigham and Women`s Hospital, Inc., priority 2019, published 2024).
Where two headings read alike, the source gives them in different places.

Columns and labels:
[1] = system: human melanoma CRL-2813 cells; experiment: sulforhodamine B (SRB) cell proliferation assay; format: cell-based; details: 5 days, read-out: IC50 (concentration that inhibits growth of human melanoma CRL-2813 cells by 50%)
Description: Cells were seeded in 96-well plates and maintained for 5 days in the presence of 0.5 μM to 20 μM of individual compound, and cell proliferation was measured by the sulforhodamine B (SRB) assay according to previous reports (see e.g., Palakurthi et al, Cancer Res. 60 (2000) 2919-2925): briefly, at the end of a 5-day treatment, cells were fixed in 10% cold trichloroacetic acid. Cell number was estimated by measuring the remaining bound dye of sulforhodamine B after washing. The percentage of growth was calculated by using the equation: 100×[(T-T0)/(C-T0)], where T and C represent the absorbance in treated and control cultures at Day 5, and T0 at time zero, respectively. If T was less than T0, cell death had occurred and was calculated from 100×[(T-T0)/T0].
All 4-CF3-ΦOcAlkΦUs were tested in the sulforhodamine B (SRB) cell proliferation assay to establish the concentrations that inhibit human melanoma CRL-2813 cells growth by 50% (IC50) (see Table 1). This activity reflects a combined effect of membrane permeability and overall anti-proliferative effects that include on target and off-target effects.

endogenous eIF2α = experiment: Western blot, phosphorylation of endogenous eIF2α in CRL-2813 cells; format: cell-based, human; details: 5 μM, 2 hours, Western blot (FIG. 2A)
Description: (§1) FIGS. 2A-2B show HRI activators of the present application induce eIF2α phosphorylation and modify its downstream effectors. In FIG. 2A, CRL-2813 cells were treated with 5 μM of each compound for 2 hours, cell lysates were probed with phosphorylated (P-eIF2α) and total eIF2α (T-eIF2α) and β-actin specific antibodies. In FIG. 2B, CRL-2813 cells were treated with 5 μM HRI activators for 8 hours and lysates were immunoblotted with antibodies against CHOP, p27^KiPl, cyclin D1 and β-actin.
Cells cultured under recommended media conditions were plated and maintained in serum-containing media without antibiotics in 14-cm plates (Nunc) until reaching 70% confluence. Cells were then treated with compounds for 6 h, washed with cold PBS once, and lysed with M-PER Mammalian Protein Extraction Reagent (Pierce) for 30 min on ice. The cell lysates were centrifuged at 12,000 RPM for 15 min and the supernatants were transferred to fresh tubes and the concentrations were determined by BCA (Pierce). […]

[2] = system: eIF2α phosphorylation (ATF-4 5′UTR luciferase reporter); experiment: surrogate eIF2α phosphorylation dual-luciferase reporter (DLR) assay; format: cell-based; details: for fold induction at 1.25 µM: read-out: Fold stimulation of ATF-4 Surrogate eIF2α @ 1.25 μM; for fold induction at 5 µM: read-out: Fold stimulation of ATF-4 Surrogate eIF2α @ 5 μM
Source text: The dual luciferase expression vector and other plasmids used in the Examples provided herein have been previously reported (see e.g., Ziegeler et al, J. Biol. Chem. 285 (2010) 15408-15419). The dual luciferase surrogate eIF2α phosphorylation assay, has also been previously reported (see e.g., Chen et al, Nat. Chem. Biol. 7 (2011) 610-616). Briefly, a dual Renilla and Firefly luciferase mammalian reporter vector that transcribes both mRNAs from the same bi-directional enhancer/promoter complex was utilized for generation of surrogate eIF2α phosphorylation assay (see e.g., Ziegeler et al, J. Biol. Chem. 285 (2010) 15408-15419). Both mRNAs contained the same 90 nucleotide plasmid derived 5′UTR. In addition, 5′UTR of the Firefly luciferase open reading frame was fused in-frame to the 267 nucleotide ATF-4 5′UTR (see e.g., Chen et al, Nat. Chem. Biol. 7 (2011) 610-616).
Cells expressing firefly and renilla luciferases were assayed with a dual glow luciferase assay kit, per manufacturer's instruction (Promega Inc., Madison, WI). The data calculations were carried out as the ratio of firefly to renilla luciferase signal (see e.g., Ziegeler et al, J. Biol. Chem. 285 (2010) 15408-15419). Dose-response curves were obtained, and triplicate data points were fitted to the logistical sigmoidal model using nonlinear least-squares regression performed in GraphPad Prism 6.
All newly synthesized N,N′-disubstituted ureas were initially evaluated by testing in the surrogate eIF2α phosphorylation dual-luciferase reporter (DLR) assay (see e.g., Chen et al, Nat. Chem. Biol. 7 (2011) 610-616; and Ziegeler et al, J. Biol. Chem. 285 (2010) 15408-15419). Briefly, this assay takes advantage of the fact that activated HRI phosphorylates eIF2α which inhibits eIF2 guanine nucleotide exchange factor eIF2B, responsible for exchanging the GDP in the eIF2·GDP complex for GTP. The reduction in the recycling of eIF2·GDP into eIF2·GTP interferes with the formation of eIF2·GTP·Met-tRNAi ternary complex. […] These include mRNA coding for activating transcription factor 4 (ATF-4) (see e.g., Aktas et al, Oncotarget, 4 (2013) 1606-1617; Aktas et al, Oncotarget, 6 (2015) 6902-6914; and Aktas et al, Proc. Natl. Acad. Sci. U.S.A. 95 (1998) 8280-8285).
In the present assay, firefly (F) luciferase mRNA was fused to the 5′UTR of ATF-4 mRNA that had multiple uORFs, while renilla (R) luciferase mRNA was fused to a 5′UTR lacking any uORFs. Agents that reduce the amount of the eIF2·GTP·Met-tRNAi ternary complex, such as N,N′-disubstituted ureas that activate HRI, increase F luciferase expression while reducing the R luciferase expression, resulting in an increased F/R luciferase ratio. The ureas of the present application were tested at 10 μM, 5 μM, 2.5 μM, and 1.25 μM concentrations in 96-well assay plates (see e.g., Chen et al, Nat. Chem. Biol. 7 (2011) 610-616; and Bai et al, ChemBioChem, 14 (2013) 1255-1262). The activity scores as the F/R ratios were calculated for every compound-treated well and normalized to F/R ratio of vehicle-treated (DMSO) wells in the same plate, arbitrarily set at 1 (F/R=1). Data obtained in the surrogate dual-luciferase eIF2α phosphorylation (DLR) assay for the series of 1-phenyl-3/4-(4-trifluorometyl) phenoxy-cycloalkyl)ureas (4-CF3-ΦcAlkΦUs) and 1-phenyl-3-(5-(4-(trifluoromethyl) phenoxy)pyrimidin-2-yl)ureas (4-CF3-ΦOPyΦUs) described herein are shown in Tables 1-2.

CHOP = experiment: Western blot, CHOP expression in CRL-2813 cells; format: cell-based, human; details: 5 μM, 8 hours, Western blot (FIG. 2B)
Description: as §1
(§2) Cells cultured under recommended media conditions were plated and maintained in serum-containing media without antibiotics in 14-cm plates (Nunc) until reaching 70% confluence. Cells were then treated with compounds for 6 h, washed with cold PBS once, and lysed with M-PER Mammalian Protein Extraction Reagent (Pierce) for 30 min on ice. The cell lysates were centrifuged at 12,000 RPM for 15 min and the supernatants were transferred to fresh tubes and the concentrations were determined by BCA (Pierce). Equal amount of proteins were mixed with Laemmli Sample Buffer, heated at 100° C. for 5 min, separated by SDS-PAGE, and probed with anti-phosphoserine-51-eIF2α (Phos-eIF2α), anti-total eIF2α-specific antibodies (Total-eIF2α) (Biosource International, Hopkinton, MA), anti-CHOP, anti-cyclin D1 or anti-actin (Santa Cruz Biotechnology, CA) using procedures substantially similar to previous reports (see e.g., Aktas et al, Mol. Cell. Biol. 17 (1997) 3850-3857).
(§3) Endogenous eIF2α is the best-known substrate of HRI and the upstream regulator of the eIF2·GTP·Met-tRNAi ternary complex abundance, while CHOP expression is a downstream effector of eIF2α phosphorylation. For assessing eIF2α phosphorylation, blotted cell lysates were treated for two hours with vehicle or selected compounds using antibodies specific for the total-eIF2α and the phosphorylated-eIF2α (T-eIF2α and [PhoS^51]-eIF2α), respectively (see e.g., Aktas et al, J. Nutr. 134 (2004) 2487S-2491S) (see FIG. 2A).

cyclin D1 = experiment: Western blot, cyclin D1 expression in CRL-2813 cells; format: cell-based, human; details: 5 μM, 8 hours, Western blot (FIG. 2B)
Description: as §1, §2, §3

[3] = 1.25 μM, F/R luciferase ratio normalized to DMSO wells (F/R=1)
[4] = 5 μM, F/R luciferase ratio normalized to DMSO wells (F/R=1)

Row | Compound | IC50 ([1]; Homo sapiens, CRL2813, 120 h) [nM] | melting point [°C] | IC50 [1] [nM] | phosphorylation of endogenous eIF2α (endogenous eIF2α) | activity in the DLR assay (in words) [2] | fold induction at 1.25 µM [2, 3] | fold induction at 5 µM [2, 4] | expression of CHOP relative to DMSO (CHOP) | expression of cyclin D1 relative to DMSO (cyclin D1) | Fold stimulation of ATF-4 Surrogate eIF2α @ 1.25 μM [2, 3] [fold] | Fold stimulation of ATF-4 Surrogate eIF2α @ 5 μM [2, 4] [fold]
1 | N#Cc1ccc(F)c(NC(=O)N[C@H]2CC[C@H](Oc3ccc(C(F)(F)F)cc3)CC2)c1 [Compound 6-VI, 1-(5-Cyano-2-fluorophenyl)-3-(trans-4-(4-(trifluoromethyl)phenoxy)cyclohexyl)urea] | > 10000 | 234.6 to 237 |  | least active | inactive | 1 ± 0.3 | 1.5 ± 0.5 | did not increase expression of CHOP | did not inhibit the expression of cyclin D1 |  | 
2 | Cc1ccc(F)cc1NC(=O)N[C@H]1CC[C@H](Oc2ccc(C(F)(F)F)cc2)CC1 [Compound 7-VI, 1-(5-Fluoro-2-methylphenyl)-3-(trans-4-(4-(trifluoromethyl)phenoxy)cyclohexyl)urea] | 5300 ± 1800 | 238.2 to 239.8 |  |  |  | 1.8 ± 0.8 | 1.5 ± 0.4 | increased the expression of CHOP | decreased the expression of cyclin D1 |  | 
3 | N#Cc1cc(F)cc(NC(=O)N[C@H]2CC[C@H](Oc3ccc(C(F)(F)F)cc3)CC2)c1 [Compound 9-VI, 1-(3-Cyano-5-fluorophenyl)-3-(trans-4-(4-(trifluoromethyl)phenoxy)cyclohexyl)urea] |  | 219.8 to 222 | 1400 ± 300 |  |  |  |  |  |  | 3.7 ± 0.8 | 6.1 ± 1.1
4 | O=C(Nc1ccc(F)c(F)c1)N[C@H]1CC[C@H](Oc2ccc(C(F)(F)F)cc2)CC1 [Compound 10-VI, 1-(3,4-Difluorophenyl)-3-(trans-4-(4-(trifluoromethyl)phenoxy)cyclohexyl)urea] | 1300 ± 300 | 228.2 to 229.8 |  |  |  | 2.9 ± 0.7 | 5.6 ± 1.2 |  |  |  | 

Now from value to compound, other results behind:

Row | IC50 ([1]; Homo sapiens, CRL2813, 120 h) [nM] | melting point [°C] | IC50 [1] [nM] | Compound | phosphorylation of endogenous eIF2α (endogenous eIF2α) | activity in the DLR assay (in words) [2] | fold induction at 1.25 µM [2, 3] | fold induction at 5 µM [2, 4] | expression of CHOP relative to DMSO (CHOP) | expression of cyclin D1 relative to DMSO (cyclin D1) | Fold stimulation of ATF-4 Surrogate eIF2α @ 1.25 μM [2, 3] [fold] | Fold stimulation of ATF-4 Surrogate eIF2α @ 5 μM [2, 4] [fold]
5 | 5500 ± 700 | 179.9 to 182 |  | O=C(Nc1ccc(F)c(F)c1)N[C@H]1C[C@H](Oc2ccc(C(F)(F)F)cc2)C1 [Compound 10-IV, 1-(3,4-difluorophenyl)-3-(trans-3-(4-(trifluoromethyl)phenoxy)cyclobutyl)urea] |  |  | 2.2 ± 0.5 | 4.5 ± 0.4 |  |  |  | 
6 | 5200 ± 1500 | 175.4 to 177.5 |  | O=C(Nc1ccc(F)c(F)c1)N[C@H]1CC[C@H](Oc2ccc(C(F)(F)F)cc2)C1 [Compound 10-V, 1-(3,4-Difluorophenyl)-3-((1S,3S)-3-(4-(trifluoromethyl)phenoxy)cyclopentyl)urea] |  |  | 0.9 ± 0.2 | 3.5 ± 0.7 |  |  |  | 
7 | 2300 ± 900 | 205.9 to 208 |  | O=C(Nc1cccc(F)c1F)N[C@H]1C[C@H](Oc2ccc(C(F)(F)F)cc2)C1 [Compound 11-IV, 1-(2,3-Difluorophenyl)-3-(trans-3-(4-(trifluoromethyl)phenoxy)cyclobutyl)urea] |  |  | 0.8 ± 0.1 | 6.2 ± 2.7 |  |  |  | 
8 | 1600 ± 2000 | 227.3 to 229.9 |  | O=C(Nc1cccc(F)c1F)N[C@H]1CC[C@H](Oc2ccc(C(F)(F)F)cc2)CC1 [Compound 11-VI, 1-(2,3-Difluorophenyl)-3-(trans-4-(4-(trifluoromethyl)phenoxy)cyclohexyl)urea] |  |  | 4.7 ± 1 | 9.9 ± 1.3 | increased the expression of CHOP | decreased the expression of cyclin D1 |  | 
